The source made the active and inactive calls. No cut-off for these calls is given here.
Tests used:
Format in all cases: protein assay
[1] = target: T1, Alpha-1,2-mannosidase (BT_2111) (Bacteroides thetaiotaomicron) (UniProt Q8A5X5); test: Activity of Bacteroides thetaiotaomicron GH92 alpha-mannosidase GH92 alpha-mannosidase 2111 assessed as mannose release at 1 mM after 16 hrs by HPLC relative to untreated control after 16 hrs by HPLC
T1 sequence (whole entry): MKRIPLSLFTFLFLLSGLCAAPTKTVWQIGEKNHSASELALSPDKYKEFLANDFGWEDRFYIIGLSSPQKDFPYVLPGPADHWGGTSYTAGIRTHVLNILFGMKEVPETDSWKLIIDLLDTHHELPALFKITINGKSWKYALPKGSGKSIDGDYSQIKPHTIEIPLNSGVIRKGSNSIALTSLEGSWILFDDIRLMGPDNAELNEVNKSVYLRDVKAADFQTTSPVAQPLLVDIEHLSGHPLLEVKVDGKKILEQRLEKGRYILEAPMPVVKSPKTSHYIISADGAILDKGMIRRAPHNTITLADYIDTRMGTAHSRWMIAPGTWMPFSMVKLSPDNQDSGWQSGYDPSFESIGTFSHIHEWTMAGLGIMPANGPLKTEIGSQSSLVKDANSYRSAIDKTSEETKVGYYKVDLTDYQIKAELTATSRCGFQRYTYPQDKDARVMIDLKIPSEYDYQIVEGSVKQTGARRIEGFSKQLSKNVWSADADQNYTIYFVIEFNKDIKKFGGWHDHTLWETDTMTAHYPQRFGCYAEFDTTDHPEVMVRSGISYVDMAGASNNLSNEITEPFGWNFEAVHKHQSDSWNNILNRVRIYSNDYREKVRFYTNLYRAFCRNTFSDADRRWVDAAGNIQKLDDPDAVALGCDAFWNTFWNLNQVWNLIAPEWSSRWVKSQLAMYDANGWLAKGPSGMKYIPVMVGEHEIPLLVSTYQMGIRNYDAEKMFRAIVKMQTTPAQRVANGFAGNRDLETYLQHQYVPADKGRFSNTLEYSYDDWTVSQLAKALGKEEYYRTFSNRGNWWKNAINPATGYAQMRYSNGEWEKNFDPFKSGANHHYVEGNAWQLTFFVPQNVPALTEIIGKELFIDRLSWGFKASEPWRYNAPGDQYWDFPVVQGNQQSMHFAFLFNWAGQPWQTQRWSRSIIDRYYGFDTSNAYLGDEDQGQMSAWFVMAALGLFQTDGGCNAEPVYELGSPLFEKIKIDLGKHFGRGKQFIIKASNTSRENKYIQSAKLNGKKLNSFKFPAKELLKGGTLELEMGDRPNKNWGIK

[2] = target: T2, Glycoside hydrolase family 92 (BT_3963) (Bacteroides thetaiotaomicron) (UniProt Q8A0Q8); test: Activity of Bacteroides thetaiotaomicron GH92 alpha-mannosidase GH92 alpha-mannosidase 3963 assessed as mannose release at 1 mM after 16 hrs by HPLC relative to untreated control after 16 hrs by HPLC
T2 sequence (whole entry): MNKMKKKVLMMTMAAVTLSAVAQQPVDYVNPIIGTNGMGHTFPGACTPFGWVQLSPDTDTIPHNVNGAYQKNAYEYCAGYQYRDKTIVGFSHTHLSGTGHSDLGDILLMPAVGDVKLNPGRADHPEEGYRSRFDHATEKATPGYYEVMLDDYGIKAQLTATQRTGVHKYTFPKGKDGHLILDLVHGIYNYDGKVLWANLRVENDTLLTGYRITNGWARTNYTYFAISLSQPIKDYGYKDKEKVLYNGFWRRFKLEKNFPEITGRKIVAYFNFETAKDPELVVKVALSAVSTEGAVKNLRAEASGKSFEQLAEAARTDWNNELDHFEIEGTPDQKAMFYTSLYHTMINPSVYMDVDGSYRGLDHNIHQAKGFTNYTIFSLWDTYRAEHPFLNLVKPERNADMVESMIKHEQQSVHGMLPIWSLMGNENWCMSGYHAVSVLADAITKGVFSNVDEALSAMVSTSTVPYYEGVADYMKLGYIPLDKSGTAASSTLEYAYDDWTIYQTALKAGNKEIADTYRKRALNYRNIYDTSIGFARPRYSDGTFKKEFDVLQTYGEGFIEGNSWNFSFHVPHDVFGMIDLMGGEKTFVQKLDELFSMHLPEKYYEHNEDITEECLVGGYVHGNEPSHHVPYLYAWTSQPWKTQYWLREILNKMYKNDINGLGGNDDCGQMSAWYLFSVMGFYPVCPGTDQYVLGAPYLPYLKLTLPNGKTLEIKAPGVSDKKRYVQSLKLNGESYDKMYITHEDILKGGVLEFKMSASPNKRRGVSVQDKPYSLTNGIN

[3] = target: T3, Alpha-1,2-mannosidase family protein (BT_4093) (Bacteroides thetaiotaomicron) (UniProt Q8A0C8); test: Activity of Bacteroides thetaiotaomicron GH92 alpha-mannosidase GH92 alpha-mannosidase 4093 assessed as mannose release at 1 mM after 16 hrs by HPLC relative to untreated control after 16 hrs by HPLC
T3 sequence (whole entry): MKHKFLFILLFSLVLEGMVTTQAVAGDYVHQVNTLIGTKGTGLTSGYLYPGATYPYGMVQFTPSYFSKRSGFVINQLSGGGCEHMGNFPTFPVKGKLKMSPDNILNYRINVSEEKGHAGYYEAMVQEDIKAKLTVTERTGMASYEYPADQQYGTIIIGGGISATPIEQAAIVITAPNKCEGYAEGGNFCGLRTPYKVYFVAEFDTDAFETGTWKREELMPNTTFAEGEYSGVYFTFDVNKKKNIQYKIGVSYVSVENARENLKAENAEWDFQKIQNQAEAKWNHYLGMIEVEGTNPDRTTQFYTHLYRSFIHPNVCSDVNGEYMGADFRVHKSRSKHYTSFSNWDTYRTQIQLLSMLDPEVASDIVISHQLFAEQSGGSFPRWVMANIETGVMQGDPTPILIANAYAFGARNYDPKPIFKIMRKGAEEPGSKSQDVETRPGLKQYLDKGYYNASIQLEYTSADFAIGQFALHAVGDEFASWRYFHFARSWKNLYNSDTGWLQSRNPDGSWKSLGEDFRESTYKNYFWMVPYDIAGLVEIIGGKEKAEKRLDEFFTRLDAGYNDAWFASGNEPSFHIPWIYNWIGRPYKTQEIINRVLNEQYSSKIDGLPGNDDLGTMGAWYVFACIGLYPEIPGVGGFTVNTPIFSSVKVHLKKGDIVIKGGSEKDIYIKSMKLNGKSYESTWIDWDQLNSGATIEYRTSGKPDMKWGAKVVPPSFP

Structure (SMILES)	Activity [1]	Activity [2]	Activity [3]
OC[C@H]1O[C@H](OC[C@H]2O[C@H](O)[C@@H](O)[C@@H](O)[C@@H]2O)[C@@H](O)[C@@H](O)[C@@H]1O	inactive	inactive	inactive
OC[C@H]1O[C@H](O[C@H]2[C@H](O)[C@H](O)[C@@H](O)O[C@@H]2CO)[C@@H](O)[C@@H](O)[C@@H]1O	inactive	inactive	100%
OC[C@H]1O[C@H](O[C@H]2[C@@H](O)[C@H](O)[C@@H](CO)O[C@@H]2O)[C@@H](O)[C@@H](O)[C@@H]1O	inactive	inactive	inactive
OC[C@H]1O[C@H](O[C@@H]2[C@H](O)[C@@H](O)O[C@H](CO)[C@H]2O)[C@@H](O)[C@@H](O)[C@@H]1O	inactive	inactive	inactive

From ChEMBL document CHEMBL1250451, “Mechanistic insights into a Ca2+-dependent family of alpha-mannosidases in a human gut symbiont” (Nat Chem Biol, 2010)
